# From ChEMBL document CHEMBL3875185, “Structure-anticonvulsant activity studies in the group of (E)-N-cinnamoyl aminoalkanols derivatives monosubstituted in phenyl ring with 4-Cl, 4-CH3 or 2-CH3” (Bioorg Med Chem, 2017)
# The source made the active and inactive calls. No cut-off for these calls is given here.
# Legend:
# [1] = Displacement of [3H]a,b-MeATP from rat urinary bladder P2X receptor measured after 120 mins by scintillation counting method
# [2] = Displacement of [3H]TCP from rat cerebral cortex phencyclidine receptor measured after 120 mins by scintillation counting method
# Mus musculus [3] = test: Anticonvulsant activity in ip dosed 6-Hz induced seizure mouse model assessed as restoration of normal activity within 10 secs from stimulation at 44 mA; format: functional
# Mus musculus [4] = test: Anticonvulsant activity in ip dosed pentylenetetrazole induced seizure mouse model; format: functional
# Rattus norvegicus [5] = test: Anticonvulsant activity in po dosed pentylenetetrazole induced seizure rat model; format: functional
# [6] = biological target: Vasoactive intestinal polypeptide receptor 1 (Homo sapiens, UniProt P32241); test: Displacement of [125I]VIP from human recombinant VPAC1 receptor expressed in CHO cells measured after 60 mins by scintillation counting method; format: cell-based
# [7] = Displacement of [3H]D888 from rat cerebral cortex calcium channel L type verapamil binding site measured after 120 mins by scintillation counting method
# [8] = Displacement of [3H]batrachotoxinin from rat cerebral cortex sodium channel site 2 measured after 60 mins by scintillation counting method
# [9] = Displacement of [35S]dATPaS from rat cerebral cortex P2Y receptor measured after 60 mins by scintillation counting method
# [10] = Displacement of [125I]Tyr11-somatostatin-14 from Sst receptor in mouse AtT-20 cells measured after 60 mins by scintillation counting method; format: cell-based; settings: att20
# [11] = Displacement of [35S]TBPS from rat cerebral cortex GABA-gated chloride channel measured after 60 mins by scintillation counting method
# Mus musculus [12] = test: Anticonvulsant activity in ip dosed maximal electroshock induced seizure mouse model assessed as suppression in hindlimb tonic extension by measuring time to peak effect; format: functional
# Rattus norvegicus [13] = test: Neurotoxicity in Sprague-Dawley rat assessed as behavioral change at 30 mg/kg, po measured at […] post dose; format: toxicity, organism-based; settings: in vivo
# Mus musculus [14] = test: Anticonvulsant activity in maximal electroshock induced seizure mouse model assessed as suppression in hindlimb tonic extension at 30 mg/kg, ip measured at 4 hrs post dose; format: functional, organism-based
# Mus musculus [15] = test: Anticonvulsant activity in maximal electroshock induced seizure mouse model assessed as suppression in hindlimb tonic extension at 100 mg/kg, ip measured at 4 hrs post dose; format: functional, organism-based
# Mus musculus [16] = test: Anticonvulsant activity in maximal electroshock induced seizure mouse model assessed as suppression in hindlimb tonic extension at 300 mg/kg, ip measured at 4 hrs post dose; format: functional, organism-based
# Mus musculus [17] = test: Neurotoxicity in mouse assessed as induction of motor impairment at 30 mg/kg, ip measured at 0.5 hrs post dose by rotarod method; format: toxicity, organism-based; settings: in vivo
# Mus musculus [18] = test: Neurotoxicity in mouse assessed as induction of motor impairment at 30 mg/kg, ip measured at 4 hrs post dose by rotarod method; format: toxicity, organism-based; settings: in vivo
# Mus musculus [19] = test: Neurotoxicity in mouse assessed as induction of motor impairment at 300 mg/kg, ip measured at 4 hrs post dose by rotarod method; format: toxicity, organism-based; settings: in vivo
# Mus musculus [20] = test: Anticonvulsant activity in 6-Hz induced seizure mouse model assessed as restoration of normal activity within 10 secs from stimulation at 100 mg/kg, ip at 32 mA measured at 4 hrs post dose; format: functional, organism-based
# Rattus norvegicus [21] = test: Anticonvulsant activity in maximal electroshock induced seizure Sprague-Dawley rat model assessed as suppression in hindlimb tonic extension at 30 mg/kg, po measured at 2 hrs post dose; format: functional, organism-based
# Rattus norvegicus [22] = test: Neurotoxicity in Sprague-Dawley rat assessed as behavioral change at 30 mg/kg, po measured at 1 hr post dose; format: toxicity, organism-based; settings: in vivo
# Rattus norvegicus [23] = test: Neurotoxicity in Sprague-Dawley rat assessed as behavioral change at 30 mg/kg, po measured at 0.5 hrs post dose; format: toxicity, organism-based; settings: in vivo
# Rattus norvegicus [24] = test: Neurotoxicity in Sprague-Dawley rat assessed as behavioral change at 30 mg/kg, po measured at 2 hrs post dose; format: toxicity, organism-based; settings: in vivo
# Rattus norvegicus [25] = test: Neurotoxicity in Sprague-Dawley rat assessed as behavioral change at 30 mg/kg, po measured at 4 hrs post dose; format: toxicity, organism-based; settings: in vivo
# Rattus norvegicus [26] = test: Neurotoxicity in Sprague-Dawley rat assessed as behavioral change at 30 mg/kg, ip measured at […] post dose; format: toxicity, organism-based; settings: in vivo
# Rattus norvegicus [27] = test: Neurotoxicity in Sprague-Dawley rat assessed as behavioral change at 30 mg/kg, ip measured at 0.5 hrs post dose; format: toxicity, organism-based; settings: in vivo
# Rattus norvegicus [28] = test: Neurotoxicity in Sprague-Dawley rat assessed as behavioral change at 30 mg/kg, ip measured at 1 hr post dose; format: toxicity, organism-based; settings: in vivo
# Rattus norvegicus [29] = test: Neurotoxicity in Sprague-Dawley rat assessed as behavioral change at 30 mg/kg, ip measured at 2 hrs post dose; format: toxicity, organism-based; settings: in vivo
# Rattus norvegicus [30] = test: Neurotoxicity in Sprague-Dawley rat assessed as behavioral change at 30 mg/kg, ip measured at 4 hrs post dose; format: toxicity, organism-based; settings: in vivo
# Mus musculus [31] = test: Anticonvulsant activity in ip dosed pentylenetetrazole induced seizure mouse model assessed as no observable episode of clonic convulsion of at least 5 secs by measuring time to peak effect; format: functional
# Mus musculus [32] = test: Neurotoxicity in ip dosed mouse assessed as induction of motor impairment by measuring time to peak effect by rotarod method; format: toxicity, organism-based; settings: in vivo
# Mus musculus [33] = test: Anticonvulsant activity in ip dosed maximal electroshock induced seizure mouse model assessed as suppression in hindlimb tonic extension; format: functional
# Mus musculus [34] = test: Anticonvulsant activity in ip dosed pentylenetetrazole induced seizure mouse model assessed as no observable episode of clonic convulsion of at least 5 secs; format: functional
# [35] = Neurotoxicity in ip dosed mouse; format: toxicity, organism-based; settings: in vivo
# [36] = Protection index, ratio of TD50 for neurotoxicity in ip dosed mouse to ED50 for ip dosed maximal electroshock induced seizure mouse model; format: toxicity, organism-based; settings: in vivo, read-out: Ratio TD50/ED50
# [37] = Protection index, ratio of TD50 for neurotoxicity in ip dosed mouse to ED50 for ip dosed pentylenetetrazole induced seizure mouse model; format: toxicity, organism-based; settings: in vivo, read-out: Ratio TD50/ED50
# Vasoactive intestinal polypeptide receptor 1, sequence (P32241 whole entry): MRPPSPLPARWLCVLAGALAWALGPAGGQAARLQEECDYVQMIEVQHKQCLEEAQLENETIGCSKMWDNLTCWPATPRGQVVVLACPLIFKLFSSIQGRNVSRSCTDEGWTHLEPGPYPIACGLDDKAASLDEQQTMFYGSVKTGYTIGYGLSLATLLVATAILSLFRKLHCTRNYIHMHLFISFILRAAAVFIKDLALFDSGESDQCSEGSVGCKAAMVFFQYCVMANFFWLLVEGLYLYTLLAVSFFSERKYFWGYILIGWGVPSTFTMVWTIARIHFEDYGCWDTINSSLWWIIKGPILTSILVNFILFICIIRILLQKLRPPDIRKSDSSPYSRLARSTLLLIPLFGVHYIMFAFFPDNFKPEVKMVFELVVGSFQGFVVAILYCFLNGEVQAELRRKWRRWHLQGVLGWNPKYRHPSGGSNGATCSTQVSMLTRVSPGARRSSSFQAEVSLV
molecule,measurement,setting,value
Nc1ncnc2c1ncn2[C@@H]1O[C@H](COP(=O)(O)CP(=O)(O)OP(=O)(O)O)[C@@H](O)[C@H]1O [DIPHOSPHOMETHYLPHOSPHONIC ACID ADENOSYL ESTER],IC50,[1],1.9 nM
C[C@]12N[C@H](Cc3ccccc31)c1ccccc12 [DIZOCILPINE],IC50,[2],4.6 nM
CCCC(CCC)C(=O)O [VALPROIC ACID],ED50,Mus musculus [3],310 mg/kg
same,ED50,Mus musculus [4],220 mg/kg
same,ED50,Rattus norvegicus [5],646 mg/kg
H-HSDAVFTDNYTRLRKQLAVKKYLNSILN-NH2,IC50,[6],0.11 nM
COc1ccc(CCN(C)CCCC(C#N)(c2cc(OC)c(OC)c(OC)c2)C(C)C)cc1OC (configuration not stated) [GALLOPAMIL],IC50,[7],15 nM
COc1ccc(C(=O)O[C@H]2CC[C@@]3(C)[C@H]4CC[C@H]5[C@]6(O)C[C@H](O)[C@@]7(O)[C@@H](CN8C[C@@H](C)CC[C@H]8[C@@]7(C)O)[C@]6(O)C[C@@]53O[C@@]24O)cc1OC,IC50,[8],4000 nM
Nc1ncnc2c1ncn2[C@H]1C[C@H](O)[C@@H](COP(O)(=S)OP(=O)(O)OP(=O)(O)O)O1 (some centres not stated),IC50,[9],29 nM
C[C@H](N)C(=O)NCC(=O)N[C@H]1CSSC[C@@H](C(=O)O)NC(=O)[C@H](CO)NC(=O)[C@H]([C@@H](C)O)NC(=O)[C@H](Cc2ccccc2)NC(=O)[C@H]([C@@H](C)O)NC(=O)[C@H](CCCCN)NC(=O)[C@H](Cc2c[nH]c3ccccc23)NC(=O)[C@H](Cc2ccccc2)NC(=O)[C@H](Cc2ccccc2)NC(=O)[C@H](CC(N)=O)NC(=O)[C@H](CCCCN)NC1=O [SOMATOSTATIN],IC50,[10],0.074 nM
C=C(C)[C@@H]1[C@H]2OC(=O)[C@@H]1[C@]1(O)C[C@H]3O[C@]34C(=O)O[C@H]2[C@]14C [PICROTOXININ],IC50,[11],77 nM
O=C(/C=C/c1ccc(Cl)cc1)N[C@H]1CC[C@H](O)CC1,Time,Mus musculus [12],2 h
same,Activity,Rattus norvegicus [13],Non-Toxic
same,Activity,Mus musculus [14],Active
same,Activity,Mus musculus [15],Active
same,Activity,Mus musculus [16],Active
same,Activity,Mus musculus [17],Non-Toxic
same,Activity,Mus musculus [18],Non-Toxic
same,Activity,Mus musculus [19],Non-Toxic
same,Activity,Mus musculus [20],Active
same,Activity,Rattus norvegicus [21],Active
same,Activity,Rattus norvegicus [22],Non-Toxic
same,Activity,Rattus norvegicus [23],Non-Toxic
same,Activity,Rattus norvegicus [24],Non-Toxic
same,Activity,Rattus norvegicus [25],Non-Toxic
same,Activity,Rattus norvegicus [26],Non-Toxic
same,Activity,Rattus norvegicus [27],Non-Toxic
same,Activity,Rattus norvegicus [28],Non-Toxic
same,Activity,Rattus norvegicus [29],Non-Toxic
same,Activity,Rattus norvegicus [30],Non-Toxic
same,Time,Mus musculus [31],2 h
same,Time,Mus musculus [32],6 h
same,ED50,Mus musculus [33],186 mg/kg
same,ED50,Mus musculus [34],317 mg/kg
same,TD50,[35],> 600 mg/kg
same,selectivity ratio,[36],> 3.22
same,selectivity ratio,[37],> 1.9
